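Tested at 5 concentrations; 48 h exposure; 96-well plates; endpoints linearly interpolated, else capped at highest concentration. GI50 = concentration required for 50% inhibition of growth. TGI marks complete inhibition of growth.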
Tests used:
Assay in all cases: DTP human tumour cell line panel, 48 h
[1] = tested on: MDA-MB-435
[2] = tested on: SK-OV-3 ovarian
[3] = tested on: SW-620 colon
[4] = tested on: MALME-3M melanoma
[5] = tested on: T-47D breast
[6] = tested on: 786-0 renal
[7] = tested on: HCC-2998 colon
[8] = tested on: SN12C renal
[9] = tested on: UACC-257 melanoma
[10] = tested on: HOP-62 NSCLC
[11] = tested on: K-562 leukemia
[12] = tested on: NCI/ADR-RES ovarian
[13] = tested on: SF-539 CNS
[14] = tested on: HL-60(TB) leukemia
[15] = tested on: RPMI-8226 leukemia
[16] = tested on: HT29 colon
[17] = tested on: OVCAR-8 ovarian
[18] = tested on: BT-549 breast
[19] = tested on: LOX IMVI melanoma
[20] = tested on: HOP-92 NSCLC
[21] = tested on: MOLT-4 leukemia
[22] = tested on: UACC-62 melanoma
[23] = tested on: OVCAR-3 ovarian
[24] = tested on: COLO 205 colon
[25] = tested on: SNB-75 CNS
[26] = tested on: A498 renal
[27] = tested on: NCI-H23 lung
[28] = tested on: SK-MEL-5 melanoma
[29] = tested on: IGROV1 ovarian
[30] = tested on: HS 578T breast
[31] = tested on: KM12 colon
[32] = tested on: OVCAR-5 ovarian
[33] = tested on: UO-31 renal
[34] = tested on: ACHN renal
[35] = tested on: EKVX NSCLC
[36] = tested on: NCI-H522 lung
[37] = tested on: NCI-H460 lung
[38] = tested on: PC-3 prostate
[39] = tested on: NCI-H226 lung
[40] = tested on: SR leukemia
[41] = tested on: U251 CNS
[42] = tested on: SF-268 CNS
[43] = tested on: HCT-116 colon
[44] = tested on: SK-MEL-28 melanoma
[45] = tested on: DU-145 prostate
[46] = tested on: MCF7 breast
[47] = tested on: SF-295 CNS
[48] = tested on: TK-10 renal
[49] = tested on: A549 NSCLC
[50] = tested on: OVCAR-4 ovarian
[51] = tested on: SK-MEL-2 melanoma
[52] = tested on: SNB-19 CNS
[53] = tested on: M14 melanoma
[54] = tested on: CCRF-CEM leukemia
[55] = tested on: RXF 393 renal
[56] = tested on: MDA-MB-231 breast
[57] = tested on: HCT-15 colon
[58] = tested on: CAKI-1 renal

Question: For `CS(=O)(=O)Nc1cc(-c2ccc3ncc(C#N)c(NCc4ccccc4)c3c2)cnc1Cl`, which GI50 [1] is on record?
Answer: The GI50 was 299 nM.

Question: What about the TGI [1] of the same compound?
Answer: The TGI was 8270 nM.

Question: What about the GI50 [2] of the same compound?
Answer: Its GI50 is 259 nM.

Question: What about the TGI [2] of the same compound?
Answer: Its TGI is 1610 nM.

Question: What about the GI50 [3] of the same compound?
Answer: The GI50 was 351 nM.

Question: What about the TGI [3] of the same compound?
Answer: Its TGI is over 36100 nM.

Question: And the GI50 [4]?
Answer: Its GI50 is 79 nM.

Question: What about the TGI [4] of the same compound?
Answer: Its TGI is 626 nM.

Question: And the GI50 [5]?
Answer: Its GI50 is 52.1 nM.

Question: What about the TGI [5] of the same compound?
Answer: The TGI was 2670 nM.

Question: And the GI50 [6]?
Answer: Its GI50 is 350 nM.

Question: And the TGI [6]?
Answer: The TGI was over 45400 nM.

Question: And the GI50 [7]?
Answer: Its GI50 is 325 nM.

Question: What about the TGI [7] of the same compound?
Answer: Its TGI is 6420 nM.

Question: What about the GI50 [8] of the same compound?
Answer: The GI50 was 233 nM.

Question: What about the TGI [8] of the same compound?
Answer: Its TGI is over 49500 nM.

Question: What about the GI50 [9] of the same compound?
Answer: The GI50 was 327 nM.

Question: And the TGI [9]?
Answer: Its TGI is 6320 nM.

Question: What about the GI50 [10] of the same compound?
Answer: The GI50 was 270 nM.

Question: What about the TGI [10] of the same compound?
Answer: The TGI was 9120 nM.

Question: What about the GI50 [11] of the same compound?
Answer: Its GI50 is 311 nM.

Question: And the TGI [11]?
Answer: Its TGI is over 100000 nM.

Question: What about the GI50 [12] of the same compound?
Answer: Its GI50 is 1700 nM.

Question: What about the TGI [12] of the same compound?
Answer: The TGI was 28900 nM.

Question: And the GI50 [13]?
Answer: Its GI50 is 205 nM.

Question: What about the TGI [13] of the same compound?
Answer: The TGI was 1700 nM.

Question: What about the GI50 [14] of the same compound?
Answer: Its GI50 is 294 nM.

Question: What about the TGI [14] of the same compound?
Answer: Its TGI is 7520 nM.

Question: And the GI50 [15]?
Answer: Its GI50 is 212 nM.

Question: And the TGI [15]?
Answer: Its TGI is 1070 nM.

Question: And the GI50 [16]?
Answer: The GI50 was 463 nM.

Question: What about the TGI [16] of the same compound?
Answer: The TGI was 25000 nM.

Question: What about the GI50 [17] of the same compound?
Answer: Its GI50 is 364 nM.

Question: What about the TGI [17] of the same compound?
Answer: Its TGI is over 39400 nM.

Question: What about the GI50 [18] of the same compound?
Answer: Its GI50 is 155 nM.

Question: What about the TGI [18] of the same compound?
Answer: The TGI was 2040 nM.

Question: What about the GI50 [19] of the same compound?
Answer: Its GI50 is 214 nM.

Question: And the TGI [19]?
Answer: The TGI was 1110 nM.

Question: What about the GI50 [20] of the same compound?
Answer: The GI50 was 33.7 nM.

Question: What about the TGI [20] of the same compound?
Answer: The TGI was 399 nM.

Question: And the GI50 [21]?
Answer: Its GI50 is 177 nM.

Question: What about the TGI [21] of the same compound?
Answer: Its TGI is 3940 nM.

Question: And the GI50 [22]?
Answer: The GI50 was 76.4 nM.

Question: What about the TGI [22] of the same compound?
Answer: Its TGI is 815 nM.

Question: What about the GI50 [23] of the same compound?
Answer: Its GI50 is 254 nM.

Question: What about the TGI [23] of the same compound?
Answer: Its TGI is 2790 nM.

Question: And the GI50 [24]?
Answer: The GI50 was 353 nM.

Question: And the TGI [24]?
Answer: The TGI was 2870 nM.

Question: And the GI50 [25]?
Answer: The GI50 was 38.2 nM.

Question: And the TGI [25]?
Answer: Its TGI is 334 nM.

Question: And the GI50 [26]?
Answer: The GI50 was 101 nM.

Question: And the TGI [26]?
Answer: Its TGI is 498 nM.

Question: What about the GI50 [27] of the same compound?
Answer: The GI50 was 291 nM.

Question: What about the TGI [27] of the same compound?
Answer: The TGI was 15600 nM.

Question: And the GI50 [28]?
Answer: The GI50 was 146 nM.

Question: What about the TGI [28] of the same compound?
Answer: The TGI was 344 nM.

Question: What about the GI50 [29] of the same compound?
Answer: The GI50 was 89.6 nM.

Question: What about the TGI [29] of the same compound?
Answer: Its TGI is 667 nM.

Question: And the GI50 [30]?
Answer: The GI50 was 65 nM.

Question: What about the TGI [30] of the same compound?
Answer: The TGI was 521 nM.

Question: And the GI50 [31]?
Answer: Its GI50 is 431 nM.

Question: What about the TGI [31] of the same compound?
Answer: The TGI was 4980 nM.

Question: And the GI50 [32]?
Answer: The GI50 was 440 nM.

Question: And the TGI [32]?
Answer: Its TGI is 21100 nM.

Question: And the GI50 [33]?
Answer: Its GI50 is 111 nM.

Question: And the TGI [33]?
Answer: The TGI was 3170 nM.

Question: What about the GI50 [34] of the same compound?
Answer: Its GI50 is 434 nM.

Question: And the TGI [34]?
Answer: Its TGI is over 46300 nM.

Question: And the GI50 [35]?
Answer: Its GI50 is 340 nM.

Question: What about the TGI [35] of the same compound?
Answer: The TGI was 3860 nM.

Question: What about the GI50 [36] of the same compound?
Answer: The GI50 was 281 nM.

Question: And the TGI [36]?
Answer: The TGI was 13900 nM.

Question: What about the GI50 [37] of the same compound?
Answer: The GI50 was 371 nM.

Question: What about the TGI [37] of the same compound?
Answer: Its TGI is over 100000 nM.

Question: And the GI50 [38]?
Answer: Its GI50 is 158 nM.

Question: What about the TGI [38] of the same compound?
Answer: The TGI was 2750 nM.

Question: And the GI50 [39]?
Answer: The GI50 was 347 nM.

Question: What about the TGI [39] of the same compound?
Answer: Its TGI is 18000 nM.

Question: What about the GI50 [40] of the same compound?
Answer: Its GI50 is 164 nM.

Question: What about the TGI [40] of the same compound?
Answer: The TGI was 7910 nM.

Question: And the GI50 [41]?
Answer: Its GI50 is 218 nM.

Question: And the TGI [41]?
Answer: The TGI was 12700 nM.

Question: And the GI50 [42]?
Answer: The GI50 was 197 nM.

Question: What about the TGI [42] of the same compound?
Answer: The TGI was 5220 nM.

Question: What about the GI50 [43] of the same compound?
Answer: The GI50 was 334 nM.

Question: What about the TGI [43] of the same compound?
Answer: Its TGI is 4360 nM.

Question: What about the GI50 [44] of the same compound?
Answer: The GI50 was 175 nM.

Question: And the TGI [44]?
Answer: The TGI was 10200 nM.

Question: What about the GI50 [45] of the same compound?
Answer: Its GI50 is 322 nM.

Question: What about the TGI [45] of the same compound?
Answer: Its TGI is 19200 nM.

Question: And the GI50 [46]?
Answer: The GI50 was 63.7 nM.

Question: And the TGI [46]?
Answer: Its TGI is 3750 nM.

Question: What about the GI50 [47] of the same compound?
Answer: Its GI50 is 192 nM.

Question: And the TGI [47]?
Answer: Its TGI is 1740 nM.

Question: What about the GI50 [48] of the same compound?
Answer: The GI50 was 190 nM.

Question: What about the TGI [48] of the same compound?
Answer: Its TGI is 1970 nM.

Question: What about the GI50 [49] of the same compound?
Answer: Its GI50 is 500 nM.

Question: And the TGI [49]?
Answer: The TGI was 7740 nM.

Question: What about the GI50 [50] of the same compound?
Answer: The GI50 was 325 nM.

Question: What about the TGI [50] of the same compound?
Answer: The TGI was over 42700 nM.

Question: What about the GI50 [51] of the same compound?
Answer: Its GI50 is 195 nM.

Question: And the TGI [51]?
Answer: The TGI was 975 nM.

Question: And the GI50 [52]?
Answer: The GI50 was 268 nM.

Question: And the TGI [52]?
Answer: Its TGI is 11600 nM.

Question: And the GI50 [53]?
Answer: The GI50 was 178 nM.

Question: What about the TGI [53] of the same compound?
Answer: Its TGI is 10800 nM.

Question: And the GI50 [54]?
Answer: The GI50 was 117 nM.

Question: And the TGI [54]?
Answer: Its TGI is 15200 nM.

Question: What about the GI50 [55] of the same compound?
Answer: Its GI50 is 38.4 nM.

Question: What about the TGI [55] of the same compound?
Answer: Its TGI is 435 nM.

Question: What about the GI50 [56] of the same compound?
Answer: The GI50 was 331 nM.

Question: And the TGI [56]?
Answer: The TGI was 6370 nM.

Question: And the GI50 [57]?
Answer: Its GI50 is 268 nM.

Question: What about the TGI [57] of the same compound?
Answer: The TGI was 11400 nM.

Question: What about the GI50 [58] of the same compound?
Answer: Its GI50 is 186 nM.

Question: And the TGI [58]?
Answer: The TGI was 2370 nM.

From PubChem BioAssay (NCI)
